Laboratory results: BindingDB's records for doi:10.1016/j.bmcl.2016.04.067 (Peking University Health Science Center, 2016)

Legend:
[1] = Inhibition of caspase-like activity of 20S human proteasome assessed as Z-nLPnLD-AMC hydrolysis at using Promega proteasome-Glo-3 substrate incubated for 15 mins by luminescence assay
[2] = Inhibition of trypsin-like activity of 20S human proteasome assessed as Z-LRR-AMC hydrolysis at using Promega proteasome-Glo-3 substrate incubated for 15 mins by luminescence assay

Row | Structure (SMILES) | IC50 [1] [µM] | IC50 [2] [µM]
1 | O=c1c2ccccc2c(-c2ccc(OCCCC[P+](c3ccccc3)(c3ccccc3)c3ccccc3)cc2)nn1-c1cccs1 | 70.5 | 558
2 | O=c1c2ccccc2c(-c2ccc(OCCCC[P+](c3ccccc3)(c3ccccc3)c3ccccc3)cc2)nn1-c1ccccc1 | 103 | 220
3 | CNc1ccc(-n2nc(-c3ccc(OCCCC[P+](c4ccccc4)(c4ccccc4)c4ccccc4)cc3)c3ccccc3c2=O)cc1 | 131 | 390

Other lines, results leading:

Row | IC50 [1] [µM] | IC50 [2] [µM] | Structure (SMILES)
4 | 133 | 589 | O=c1c2ccccc2c(-c2ccc(OCCCC[P+](c3ccccc3)(c3ccccc3)c3ccccc3)cc2)nn1CC1CC1
5 | 80.2 | 276 | CC(C)Cn1nc(-c2ccc(OCCCC[P+](c3ccccc3)(c3ccccc3)c3ccccc3)cc2)c2ccccc2c1=O
6 | 50.4 | 643 | O=c1c2ccccc2c(-c2ccc(OCCCC[P+](c3ccccc3)(c3ccccc3)c3ccccc3)cc2)nn1CC1CCCCC1
